Results: patent publication US20250236614A1, “BICYCLIC TETRAHYDROAZEPINE DERIVATIVES” (Hoffmann-La Roche Inc., priority 2022, published 2025)
Like-named read-outs stand apart in the source and are kept apart here.

Columns and labels:
[1] = biological target: T1, hDGKalpha(1-735)-N-His (DGKA) (Homo sapiens, UniProt P23743); assay: In vitro DGK inhibition assay (ADP-Glo, in house), DGK alpha; type: biochemical; details: isomer A; 4 nM DGK α, 25 μM ATP, 125 μM DLG in liposomes, 1 hour reaction; read-out: DGKalpha ADP Glo assay IC50
T1 construct: hDGKalpha(1-735)-N-His; His (N)
T1 sequence (P23743 whole entry): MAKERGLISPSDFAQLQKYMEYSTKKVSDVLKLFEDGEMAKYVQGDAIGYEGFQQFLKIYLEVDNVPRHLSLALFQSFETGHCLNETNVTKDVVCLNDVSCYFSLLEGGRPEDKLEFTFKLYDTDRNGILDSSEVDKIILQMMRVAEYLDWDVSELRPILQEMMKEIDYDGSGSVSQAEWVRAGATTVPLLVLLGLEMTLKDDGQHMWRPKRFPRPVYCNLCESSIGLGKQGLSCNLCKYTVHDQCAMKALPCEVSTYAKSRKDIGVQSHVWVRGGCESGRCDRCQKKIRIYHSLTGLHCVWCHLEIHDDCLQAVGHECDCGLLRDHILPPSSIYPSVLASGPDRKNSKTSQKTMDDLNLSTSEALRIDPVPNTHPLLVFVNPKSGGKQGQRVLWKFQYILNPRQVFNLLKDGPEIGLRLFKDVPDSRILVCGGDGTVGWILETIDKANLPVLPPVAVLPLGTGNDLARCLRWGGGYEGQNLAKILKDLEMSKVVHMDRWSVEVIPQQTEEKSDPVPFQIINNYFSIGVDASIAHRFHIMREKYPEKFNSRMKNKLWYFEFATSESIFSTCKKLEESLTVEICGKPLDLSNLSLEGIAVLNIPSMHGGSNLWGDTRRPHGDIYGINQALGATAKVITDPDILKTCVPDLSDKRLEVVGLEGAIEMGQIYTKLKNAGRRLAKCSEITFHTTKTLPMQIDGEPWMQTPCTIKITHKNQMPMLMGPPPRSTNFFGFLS
Description: (§1) DGK α and ζ kinase use ATP to phosphorylate the substrate 1,2-dilauroyl-sn-glycerol (DLG, incorporated in the liposomes). ATP is converted to ADP as a result of this enzymatic reaction.
(§2) After the kinase reaction, an ATP-depletion reagent is added to terminate the kinase reaction and deplete any remaining ATP, leaving only ADP. Second, a detection reagent is added to simultaneously convert ADP to ATP and allow the newly synthesized ATP to be converted to light using a coupled luciferase/luciferin reaction.
(§3) Full length DGKA and Z were expressed in Sf21 insect cells by infecting the cells with the baculovirus stock at MOI of 2. Purification of both enzymes was performed as previously described by Takahashi et al., PeerJ, 2018 (Takahashi, D.; Sakane, F. Expression and purification of human diacylglycerolkinase alpha from baculovirus-infected insect cells for structural studies. PeerJ2018, 6, No. e5449).
(§4) A concentrated liposome solution was prepared in assay buffer without DTT and BSA: 2 mM of DLG in 21 mM of total liposome (2 mM DLG/8 mM PS/11 mM PC). The reaction mixtures contain the assay buffer with a final DLG concentration of 125 μM ATP concentrations of 25 μM (for DGKA assay) or 50 μM (for DGKZ assay). The reactions were started by addition of DGK α and ζ kinases at 4 nM and 2 nM final concentrations, respectively. After 1 hour reaction, the amount of ADP formed was detected with the ADP-Glo kinase assay (Promega) according to the manufacturer instructions. Compounds were added in 11I-points dose response, starting at 10 mM, 1:3 dilutions, with a final DMSO concentration of […]. The multidrop combi was used as a liquid handler and luminescence was read with 0.5 s by the envision reader (PE).

[2] = biological target: T2, hDGKzeta(1-928)-N-His (DGKZ) (Homo sapiens, UniProt Q13574); assay: In vitro DGK inhibition assay (ADP-Glo, in house), DGK zeta; type: biochemical; details: isomer A; 2 nM DGK ζ, 50 μM ATP, 125 μM DLG in liposomes, 1 hour reaction; read-out: DGKzeta ADP Glo assay IC50
T2 construct: hDGKzeta(1-928)-N-His; His (N)
T2 sequence (Q13574 whole entry): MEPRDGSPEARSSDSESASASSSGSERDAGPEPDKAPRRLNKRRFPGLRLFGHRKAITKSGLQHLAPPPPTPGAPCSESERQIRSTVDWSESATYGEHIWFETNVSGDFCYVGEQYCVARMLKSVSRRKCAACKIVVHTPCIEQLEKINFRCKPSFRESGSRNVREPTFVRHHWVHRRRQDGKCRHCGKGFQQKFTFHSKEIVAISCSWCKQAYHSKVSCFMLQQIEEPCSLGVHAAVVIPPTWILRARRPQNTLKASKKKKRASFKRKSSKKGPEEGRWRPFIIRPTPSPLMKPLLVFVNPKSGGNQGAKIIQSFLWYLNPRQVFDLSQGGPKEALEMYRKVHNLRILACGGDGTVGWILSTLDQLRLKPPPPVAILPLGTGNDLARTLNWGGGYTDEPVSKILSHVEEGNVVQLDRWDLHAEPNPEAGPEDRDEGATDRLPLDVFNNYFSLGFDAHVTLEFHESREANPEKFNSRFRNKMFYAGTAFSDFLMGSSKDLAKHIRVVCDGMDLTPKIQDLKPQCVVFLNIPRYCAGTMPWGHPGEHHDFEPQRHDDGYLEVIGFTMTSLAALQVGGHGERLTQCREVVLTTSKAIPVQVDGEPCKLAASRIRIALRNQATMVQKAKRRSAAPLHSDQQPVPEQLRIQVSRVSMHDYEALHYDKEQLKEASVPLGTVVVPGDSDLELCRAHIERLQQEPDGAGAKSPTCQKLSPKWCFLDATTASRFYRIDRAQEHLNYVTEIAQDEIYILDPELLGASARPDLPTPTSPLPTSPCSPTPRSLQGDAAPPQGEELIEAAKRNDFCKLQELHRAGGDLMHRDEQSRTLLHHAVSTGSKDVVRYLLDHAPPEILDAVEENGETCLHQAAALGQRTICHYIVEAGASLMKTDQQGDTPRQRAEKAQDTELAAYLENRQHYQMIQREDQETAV
Description: as §1, §2, §3, §4

primary human T-cells = assay: T-cell proliferation assay (CellTiter-Glo); type: cell-based; details: isomer A; for EC50: CD3 antibody-stimulated T-cells, CellTiter-Glo after 5 days, read-out: Tcell Proliferation CD3 EC50; for Emax: read-out: Emax proliferation (% activation)
Description: Expanded primary human T-cells are thawed and cultured in RPMI 1640 (Gibco, #61870-010)+5% human serum (HS, Sigma, #H3667)+1 mM Sodium Pyruvate (Gibco, #11360-039)+50 μM 2-mercaptoethanol (Gibco, #31350-010) and 1× Pen-Strep (Life Technologies, #15140122) medium at density of 2 Mio/ml for 3 hours in 5% CO2, 37° C. and 95% humidity. For coating of plates, PBS++ only or PBS++ with CD3 antibody (concentration depending on donor and determined by CD3 titrations) is added 100 μl/well to Poly-D Lysine coated 96-well plates. Plates are sealed and incubated at room temperature for 3 hours on a table-top rocking platform. After incubation, plates are washed once with PBS−− and filled with 40 μl/well culture medium only. Compounds are then added (see next section) to medium only plates. After 3 hours of culturing the T-cells, cells are filtered through a cell strainer (Miltenyi Biotech, #130-041-407), counted again and concentration is adjusted to 1.25 Mio/ml.
Cells are then seeded 80 μl/well to the 40 μl/well including dispensed compounds according to plate layout. By adding cells, compounds are further diluted 1:3, and resulting in 100k cells/120 μl/well. After 48 hours 40 μl of supernatant is collected carefully from the top while not disturbing the cells. Cells are assessed for proliferation 5 days later by measuring […] using CellTiterGlo (Promega).
Compounds were added in a 5 or 6 pt dose response with the Tecan D300e Digital Dispenser, all conditions 3 times more concentrated than the end-concentration, since cells are added afterwards (80 μl cells to 40 μl prepared medium with treatment). The DR was starting at 20 μM or 10 μM final top concentration and a dilution factor of 3.333. The positive control was the reference compound A1 that was added in a dose response as well, additionally to 3 wells of only 20 μM representing the positive stimulator control. All wells were normalized with DMSO to a final concentration of 0.6% (0.2% end-concentration).
After 5 days, for detection of ATP which is directly proportional to the number of cells present per well, the CellTiter-Glo® 2.0 Reagent is used. After visual control for toxicity or precipitations of the tested compounds, the plates are equilibrated to room temperature for 45 minutes. CellTiter-Glo® 2.0 Reagent is equilibrated to room temperature as well. After equilibration, an equal amount of CellTiter-Glo reagent is added to the cells (80 μl/well) with an electronic multichannel pipette. Plates are placed on a rocking platform for 15 minutes at room temperature. After incubation, the bottom of the plates is sealed with backing tape. Luminescence is measured with PHERAstar FSX (interval time 0.5 sec, gain 3000, focal height 15 mm) and exported as CSV file for analysis in Genedata screener.
CD3 and PBS plates were analysed separately in Genedata Screener using Roche Normalization PCT_POS_CTRL with DMSO set as Neutral Control and 20 μM of the reference compound A1 set as Stimulator Control/100%.
For CD3 conditions EC50 and Emax of the fitted sigmoidal curve were reported. If no curve could be fitted, the EC50 was reported as blank field and the Emax was based on individual data points. […] Compounds which activate unstimulated cells (see IL2 measurements) or compounds which negatively affected viability were flagged.

[3] = Homo sapiens, T-cell, 120 h, CD3 condition, 5 days, 20 μM reference compound A1 = 100%, DMSO neutral control

Row | Molecule | IC50 [1] | IC50 [2] | EC50 (primary human T-cells) | Emax proliferation (% activation) (primary human T-cells; CD3 condition, 5 days, 20 μM reference compound A1 = 100%, DMSO neutral control) | EC50 (primary human T-cells; Homo sapiens, T-cell, 120 h) | Emax (primary human T-cells; [3])
1 | 2-methyl-2-[5-[(3S)-3-amino-5,5,7-trifluoro-2-oxo-1-[[4-(trifluoromethoxy)phenyl]methyl]-3,4-dihydro-1-benzazepin-8-yl]-1,3,4-oxadiazol-2-yl]propanenitrile and 2-methyl-2-[5-[(3R)-3-amino-5,5,7-trifluoro-2-oxo-1-[[4-(trifluoromethoxy)phenyl]methyl]-3,4-dihydro-1-benzazepin-8-yl]-1,3,4-oxadiazol-2-yl]propanenitrile [Example 2] | 1400 nM | 1810 nM | 315 nM | 161 % activation | – | –
2 | CC(C)(c1nnc(-c2cc3c(cc2F)C(F)(F)CC(N)C(=O)N3Cc2ccc(Oc3ccccc3)cc2)o1)S(C)(=O)=O (racemic) [Example 5, (3S)-3-amino-5,5,7-trifluoro-8-[5-(1-methyl-1-methylsulfonyl-ethyl)-1,3,4-oxadiazol-2-yl]-1-[(4-phenoxyphenyl)methyl]-3,4-dihydro-1-benzazepin-2-one and (3R)-3-amino-5,5,7-trifluoro-8-[5-(1-methyl-1-methylsulfonyl-ethyl)-1,3,4-oxadiazol-2-yl]-1-[(4-phenoxyphenyl)methyl]-3,4-dihydro-1-benzazepin-2-one] | 16900 nM | 2400 nM | – | – | 684 nM | 249%
3 | CC(C)(C#N)c1nnc(-c2cc3c(cc2F)C(F)(F)CC(N)C(=O)N3Cc2ccc(-n3cc(C(F)(F)F)cn3)cc2)o1 (racemic) [Example 33, 2-[5-[(3S)-3-amino-5,5,7-trifluoro-2-oxo-1-[[4-[4-(trifluoromethyl)pyrazol-1-yl]phenyl]methyl]-3,4-dihydro-1-benzazepin-8-yl]-1,3,4-oxadiazol-2-yl]-2-methyl-propanenitrile and 2-[5-[(3R)-3-amino-5,5,7-trifluoro-2-oxo-1-[[4-[4-(trifluoromethyl)pyrazol-1-yl]phenyl]methyl]-3,4-dihydro-1-benzazepin-8-yl]-1,3,4-oxadiazol-2-yl]-2-methyl-propanenitrile] | 2370 nM | 1680 nM | – | – | 98.8 nM | 128%
4 | COC(F)(c1nnc(-c2cc3c(cc2F)C(F)(F)C[C@H](N)C(=O)N3Cc2ccc(OC(F)(F)F)cc2)o1)C(F)(F)F (single isomer, unassigned) [Example 4] | 4370 nM | 8930 nM | – | – | 140 nM | 112%
5 | CC(C)(C)c1nnc(-c2cc3c(cc2F)C(F)(F)C[C@@H](N)C(=O)N3Cc2ccc(OC3CCCC3)cc2)o1 (single isomer, unassigned) [Example 7] | 9640 nM | 1730 nM | – | – | 127 nM | 110%
6 | CC(C)(c1nnc(-c2cc3c(cc2F)C(F)(F)C[C@@H](N)C(=O)N3Cc2ccc(-c3ccc(C(F)(F)F)cn3)cc2)o1)S(C)(=O)=O (single isomer, unassigned) [Example 8] | 5440 nM | 16100 nM | – | – | 185 nM | 86%
7 | COc1ccc(-c2ccc(CN3C(=O)[C@H](N)CC(F)(F)c4cc(F)c(-c5nnc(C(C)(C)C#N)o5)cc43)cc2)cc1 (single isomer, unassigned) [Example 9] | 9920 nM | 2360 nM | – | – | 267 nM | 114%
8 | COc1ccc(-c2ccc(CN3C(=O)[C@H](N)CC(F)(F)c4cc(F)c(-c5nnc(C(C)(C)S(C)(=O)=O)o5)cc43)cc2)cc1 (single isomer, unassigned) [Example 10] | 16200 nM | 11500 nM | – | – | 377 nM | 76%
9 | CC(C)(C#N)c1nnc(-c2cc3c(cc2F)C(F)(F)C[C@@H](N)C(=O)N3Cc2ccc(-c3ccc(C(F)(F)F)cn3)cc2)o1 (single isomer, unassigned) [Example 12] | 24600 nM | 2900 nM | – | – | 409 nM | 152%
10 | CCN1CC(c2nnc(-c3cc4c(cc3F)C(F)(F)C[C@@H](N)C(=O)N4Cc3ccc(OC(F)(F)F)cc3)o2)CC(F)(F)C1 (single isomer, unassigned) [Example 13] | 9250 nM | 2260 nM | – | – | 77.7 nM | 79%
11 | N[C@@H]1CC(F)(F)c2cc(F)c(-c3nnc(N4CCCC4)o3)cc2N(Cc2ccc(-c3noc(C(F)(F)F)n3)cc2)C1=O (single isomer, unassigned) [Example 14] | > 62500 nM | 17900 nM | – | – | 593 nM | 149%
12 | N[C@@H]1CC(F)(F)c2cc(F)c(-c3nnc(N4CCC(F)(F)CC4)o3)cc2N(Cc2ccc(-c3noc(C(F)(F)F)n3)cc2)C1=O (single isomer, unassigned) [Example 15] | 39600 nM | 1810 nM | – | – | 127 nM | 108%
13 | CC(C)(c1nnc(-c2cc3c(cc2F)C(F)(F)C[C@@H](N)C(=O)N3Cc2ccc(-c3noc(C(F)(F)F)n3)cc2)o1)S(C)(=O)=O (single isomer, unassigned) [Example 16] | 13200 nM | 14900 nM | – | – | 296 nM | 241%
14 | N[C@@H]1CC(F)(F)c2cc(F)c(-c3nnc(N4CCOC5(CC5)C4)o3)cc2N(Cc2ccc(-c3noc(C(F)(F)F)n3)cc2)C1=O (single isomer, unassigned) [Example 17] | > 62500 nM | 3250 nM | – | – | 558 nM | 115%
15 | CC(C)(C#N)c1nnc(-c2cc3c(cc2F)C(F)(F)C[C@@H](N)C(=O)N3Cc2ccc(-c3ncc(C(F)(F)F)cc3F)cc2)o1 (single isomer, unassigned) [Example 19] | 41600 nM | 7240 nM | – | – | 984 nM | 85%
16 | CC(C)(C#N)c1nnc(-c2cc3c(cc2F)C(F)(F)C[C@@H](N)C(=O)N3Cc2ccc(-n3nnc(C(F)(F)F)n3)cc2)o1 (single isomer, unassigned) [Example 20] | 7180 nM | 2140 nM | – | – | 205 nM | 118%
